Reference: patent US20240132498A1, “CRYSTALLINE FORMS OF 5-(3,4-DIFLUOROBENZYL)-8-((1R,4R)-4-METHYLCYCLOHEXYL)-6,9-DIOXO-2,5,8-TRIAZASPIRO[3.5]NONANE-2-CARBALDEHYDE” (Cytokinetics, Incorporated, priority 2022, published 2024)
≈ marks a conversion by molar mass, not a printed value. Where two headings read alike, the source gives them in different places.

How the values were obtained:
CYP2C9 = biological target: T1, CYP2C9 (Homo sapiens, UniProt P11712); assay: Time-dependent inhibition of CYP450 enzymes in human liver microsomes: CYP2C9; format: in vitro ADME
T1 construct: from tissue; host or cells: pooled human liver microsomes
Procedure: (§1) An assessment of the time-dependent Inhibitory Potential of the test compounds against Principal Human Cytochrome P450 Isozymes using Human Liver Microsomes was also carried out using standard methods (Grimm et al, Drug Metab. Dispos., Jul; 37(7):1355-70. doi: 10.1124/dmd.109.026716, 2009). Pooled human microsomes and selective CYP probe substrates were used for in vitro assessment of test compounds at 25 and 50 μM as time-dependent inhibitors of […] human hepatic cytochrome P450 isozymes (CYP1A2, 2B6, 2C9, 2C19, 2D6, and 3A4). LC-MS/MS was used to quantify metabolite formation. The inhibition of each P450 enzyme in human liver microsomes was measured as the percentage decrease in the activity of marker metabolite formation as measured by LC-MS/MS compared to non-inhibited controls (=100% activity) at time zero and after 30 minutes incubation. The occurrence of any time dependent inhibition was then expressed as the fold change in enzyme activity at time zero relative to the activity after 30 minutes incubation. The time dependent inhibition for the compound 5-(3,4-difluorobenzyl)-8-((1 r,4r)-4-methylcyclohexyl)-6,9-dioxo-2,5, 8-triazaspiro [3.5]nonane-2-carbaldehyde (Compound 1) against CYP1A2, […], CYP2C8, CYP2C9, CYP2C19, CYP2D6, CYP3A4-M and CYP3A4-T is shown in Table B-12.

CYP2C8 = biological target: T2, CYP2C8 (Homo sapiens, UniProt P10632); assay: Time-dependent inhibition of CYP450 enzymes in human liver microsomes: CYP2C8; format: in vitro ADME
T2 construct: from tissue; host or cells: pooled human liver microsomes
T2 sequence (P10632 1-490): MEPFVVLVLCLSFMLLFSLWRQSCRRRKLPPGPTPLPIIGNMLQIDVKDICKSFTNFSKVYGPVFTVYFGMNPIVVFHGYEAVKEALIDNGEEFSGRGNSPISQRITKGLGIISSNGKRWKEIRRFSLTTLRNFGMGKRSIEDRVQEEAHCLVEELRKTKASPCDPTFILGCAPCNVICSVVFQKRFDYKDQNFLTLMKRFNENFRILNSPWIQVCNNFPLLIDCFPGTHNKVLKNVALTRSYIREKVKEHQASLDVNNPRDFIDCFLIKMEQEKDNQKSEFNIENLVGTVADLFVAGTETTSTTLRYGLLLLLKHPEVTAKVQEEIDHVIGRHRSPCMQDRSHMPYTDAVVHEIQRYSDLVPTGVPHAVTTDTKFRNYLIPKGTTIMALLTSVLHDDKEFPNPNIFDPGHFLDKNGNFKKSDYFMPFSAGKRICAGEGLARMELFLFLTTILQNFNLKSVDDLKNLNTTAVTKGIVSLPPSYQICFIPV
Procedure: as §1

CYP2D6 = biological target: T3, CYP2D6 (Homo sapiens, UniProt P10635); assay: Time-dependent inhibition of CYP450 enzymes in human liver microsomes: CYP2D6; format: in vitro ADME; conditions: for fold change in activity (time dependent inhibition), 2D6: human liver microsomes
T3 construct: from tissue; host or cells: pooled human liver microsomes
Procedure: as §1

[1] = Kinetic solubility of crystalline Form II in solvents; format: physicochemical; conditions: for solubility at 4 h: 25 °C, thermodynamic from solid; for Solubility: 25° C., 4 hours
Procedure: The solubility of crystalline Form II was analyzed with 15 types of common solvents. Sufficient amount of Form II was suspended in 0.5 mL solvent for a maximum anticipated concentration of Ca. =10-100 mg/ml of the free Form II. The resulting suspensions were then shaken in a platform shaker at 25° C./ 750 rpm for 4 hours. After equilibration, the appearance was recorded, and the pH of the saturated solution was measured for aqueous samples only. Samples were then centrifuged for 5 minutes at 13.4 krpm before dilution with MeCN except for the samples that were initially diluted in n-heptane, which were then diluted in 2-propanol rather than MeCN.
All diluted samples were then analyzed by HPLC. Samples were further diluted based on appearance and the maximum anticipated concentration […]. All diluted samples were injected at 10, 15 and 20 piL to obtain peak areas within the calibration curve as a diluted concentration of Ca. 0.1 mg/ml was trying to be achieved.
Quantitation was measured by HPLC with reference to a standard solution of approximately 0.15 mg/ml in MeCN. Different volumes of the standard diluted and undiluted sample solutions were injected. The solubility was calculated using the peak areas determined by integration of the peak found at the same retention time as the principal peak in the standard injection.

T1 sequence (P11712 whole entry): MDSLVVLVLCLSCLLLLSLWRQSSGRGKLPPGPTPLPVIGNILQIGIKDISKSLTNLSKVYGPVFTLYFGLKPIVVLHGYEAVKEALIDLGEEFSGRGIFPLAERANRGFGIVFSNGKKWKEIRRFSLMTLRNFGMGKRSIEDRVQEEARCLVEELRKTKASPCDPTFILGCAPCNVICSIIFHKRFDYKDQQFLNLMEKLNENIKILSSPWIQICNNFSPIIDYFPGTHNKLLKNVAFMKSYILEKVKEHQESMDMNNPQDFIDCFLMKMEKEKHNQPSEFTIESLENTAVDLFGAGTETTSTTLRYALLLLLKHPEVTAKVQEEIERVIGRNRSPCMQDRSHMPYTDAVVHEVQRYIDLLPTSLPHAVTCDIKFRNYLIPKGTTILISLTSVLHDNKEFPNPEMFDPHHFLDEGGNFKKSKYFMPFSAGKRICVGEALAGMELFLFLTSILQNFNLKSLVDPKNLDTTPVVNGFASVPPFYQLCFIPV
T3 sequence (P10635 whole entry): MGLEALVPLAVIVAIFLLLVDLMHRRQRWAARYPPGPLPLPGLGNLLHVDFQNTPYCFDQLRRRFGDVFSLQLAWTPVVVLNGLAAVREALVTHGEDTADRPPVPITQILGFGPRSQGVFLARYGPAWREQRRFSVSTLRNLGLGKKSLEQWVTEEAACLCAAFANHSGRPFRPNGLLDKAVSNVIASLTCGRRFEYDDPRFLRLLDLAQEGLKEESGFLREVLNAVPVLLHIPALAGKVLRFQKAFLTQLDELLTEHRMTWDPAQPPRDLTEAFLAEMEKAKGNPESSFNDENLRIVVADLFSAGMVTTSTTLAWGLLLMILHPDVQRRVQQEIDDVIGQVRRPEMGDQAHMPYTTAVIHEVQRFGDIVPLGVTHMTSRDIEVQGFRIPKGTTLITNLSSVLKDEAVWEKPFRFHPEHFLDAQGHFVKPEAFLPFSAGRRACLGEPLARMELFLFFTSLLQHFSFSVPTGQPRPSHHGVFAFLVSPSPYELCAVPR

## C[C@H]1CC[C@H](N2CC(=O)N(Cc3ccc(F)c(F)c3)C3(CN(C=O)C3)C2=O)CC1 [Compound 1, 5-(3,4-difluorobenzyl)-8-((1r,4r)-4-methylcyclohexyl)-6,9-dioxo-2,5,8-triazaspiro[3.5]nonane-2-carbaldehyde]
CYP2C9; CYP2C9, 25 μM
  (% Activity NADPH T0)/(% Activity NADPH T30): 1.0
CYP2C9; CYP2C9, 50 μM
  (% Activity NADPH T0)/(% Activity NADPH T30): 0.9
CYP2C9; human, pooled human liver microsomes, CYP2C9, 25 μM, 30 minutes incubation, read-out: % Activity NADPH T30
  activity at 30 min, 25 µM: 84%
CYP2C9; human, pooled human liver microsomes, CYP2C9, 25 μM, time zero, read-out: % Activity NADPH T0
  activity at 0 min, 25 µM: 83%
CYP2C9; human, pooled human liver microsomes, CYP2C9, 50 μM, 30 minutes incubation, read-out: % Activity NADPH T30
  activity at 30 min, 50 µM: 71%
CYP2C9; human, pooled human liver microsomes, CYP2C9, 50 μM, time zero, read-out: % Activity NADPH T0
  activity at 0 min, 50 µM: 63%
CYP2C8; CYP2C8, 25 μM
  (% Activity NADPH T0)/(% Activity NADPH T30): 1.0
CYP2C8; CYP2C8, 50 μM
  (% Activity NADPH T0)/(% Activity NADPH T30): 1.2
CYP2C8; human, pooled human liver microsomes, CYP2C8, 25 μM, 30 minutes incubation, read-out: % Activity NADPH T30
  activity at 30 min, 25 µM: 80%
CYP2C8; human, pooled human liver microsomes, CYP2C8, 25 μM, time zero, read-out: % Activity NADPH T0
  activity at 0 min, 25 µM: 79%
CYP2C8; human, pooled human liver microsomes, CYP2C8, 50 μM, 30 minutes incubation, read-out: % Activity NADPH T30
  activity at 30 min, 50 µM: 79%
CYP2C8; human, pooled human liver microsomes, CYP2C8, 50 μM, time zero, read-out: % Activity NADPH T0
  activity at 0 min, 50 µM: 97%
CYP2D6; CYP2D6, 25 μM
  (% Activity NADPH T0)/(% Activity NADPH T30): 1.3
CYP2D6; CYP2D6, 50 μM
  (% Activity NADPH T0)/(% Activity NADPH T30): 1.1
CYP2D6; 25 μM
  fold change in activity (time dependent inhibition), 2D6: 1.3 fold
CYP2D6; 50 μM
  fold change in activity (time dependent inhibition), 2D6: no change in activity
CYP2D6; human, pooled human liver microsomes, CYP2D6, 25 μM, 30 minutes incubation, read-out: % Activity NADPH T30
  activity at 30 min, 25 µM: 90%
CYP2D6; human, pooled human liver microsomes, CYP2D6, 25 μM, time zero, read-out: % Activity NADPH T0
  activity at 0 min, 25 µM: 118%
CYP2D6; human, pooled human liver microsomes, CYP2D6, 50 μM, 30 minutes incubation, read-out: % Activity NADPH T30
  activity at 30 min, 50 µM: 88%
CYP2D6; human, pooled human liver microsomes, CYP2D6, 50 μM, time zero, read-out: % Activity NADPH T0
  activity at 0 min, 50 µM: 93%

## C[C@H]1CC[C@H](N2CC(=O)N(Cc3ccc(F)c(F)c3)C3(CN(C=O)C3)C2=O)CC1 [Form II, 5-(3,4-difluorobenzyl)-8-((1r,4r)-4-methylcyclohexyl)-6,9-dioxo-2,5,8-triazaspiro[3.5]nonane-2-carbaldehyde]
[1]; 2-BuOH, organic solvent or mixture, 2-BuOH, read-out: Average Solubility
  solubility at 4 h: 11 mg/mL (≈ 27.1 mM)
[1]; 2-BuOH, organic solvent or mixture, 2-BuOH, single replicate, read-out: Solubility
  solubility at 4 h: 11 mg/mL (≈ 27.1 mM)
[1]; 2-Me-THF, organic solvent or mixture, 2-Me-THF, read-out: Average Solubility
  solubility at 4 h: 24 mg/mL (≈ 59.2 mM)
[1]; 2-Me-THF, organic solvent or mixture, 2-Me-THF, single replicate, read-out: Solubility
  solubility at 4 h: 24 mg/mL (≈ 59.2 mM)
[1]; Acetone, organic solvent or mixture, Acetone, single replicate, read-out: Solubility
  solubility at 4 h: > 101 mg/mL
[1]; DI Water, pH 8.7, water, DI Water, final pH 8.7, read-out: Average Solubility
  solubility at 4 h: ~0.41 mg/mL (≈ 1.01 mM)
[1]; DI Water, pH 8.7, water, DI Water, final pH 8.7, single replicate, read-out: Solubility
  solubility at 4 h: 0.5 mg/mL (≈ 1.23 mM)
[1]; DI Water, final pH 8.7, single replicate
  Solubility: 0.31 mg/mL (≈ 0.765 mM)
[1]; DMSO, organic solvent or mixture, DMSO, read-out: Average Solubility
  solubility at 4 h: > 100 mg/mL
[1]; DMSO, organic solvent or mixture, DMSO, single replicate, read-out: Solubility
  solubility at 4 h: > 101 mg/mL
[1]; DMSO, single replicate
  Solubility: >101.2 mg/mL
[1]; EtOH, organic solvent or mixture, EtOH, read-out: Average Solubility
  solubility at 4 h: ~24 mg/mL (≈ 59.2 mM)
[1]; EtOH, organic solvent or mixture, EtOH, single replicate, read-out: Solubility
  solubility at 4 h: 25 mg/mL (≈ 61.7 mM)
[1]; EtOH, single replicate
  Solubility: 23 mg/mL (≈ 56.7 mM)
[1]; IPA, organic solvent or mixture, IPA, read-out: Average Solubility
  solubility at 4 h: 9.8 mg/mL (≈ 24.2 mM)
[1]; IPA, organic solvent or mixture, IPA, single replicate, read-out: Solubility
  solubility at 4 h: 9.8 mg/mL (≈ 24.2 mM)
[1]; Isopropyl acetate, organic solvent or mixture, Isopropyl acetate, single replicate, read-out: Solubility
  solubility at 4 h: 22 mg/mL (≈ 54.3 mM)
[1]; MIBK, organic solvent or mixture, MIBK, read-out: Average Solubility
  solubility at 4 h: 39 mg/mL (≈ 96.2 mM)
[1]; MIBK, organic solvent or mixture, MIBK, single replicate, read-out: Solubility
  solubility at 4 h: 39 mg/mL (≈ 96.2 mM)
[1]; MeCN, organic solvent or mixture, MeCN, read-out: Average Solubility
  solubility at 4 h: > 100 mg/mL
[1]; MeCN, organic solvent or mixture, MeCN, single replicate, read-out: Solubility
  solubility at 4 h: > 101 mg/mL
[1]; MeCN, single replicate
  Solubility: >100.6 mg/mL
[1]; MeOH, organic solvent or mixture, MeOH, read-out: Average Solubility
  solubility at 4 h: > 100 mg/mL
[1]; MeOH, organic solvent or mixture, MeOH, single replicate, read-out: Solubility
  solubility at 4 h: > 100 mg/mL
[1]; MeOH, single replicate
  Solubility: >100.6 mg/mL
[1]; THF, organic solvent or mixture, THF, read-out: Average Solubility
  solubility at 4 h: > 100 mg/mL
[1]; THF, organic solvent or mixture, THF, single replicate, read-out: Solubility
  solubility at 4 h: > 102 mg/mL
[1]; THF, single replicate
  Solubility: >101.2 mg/mL
[1]; Tert-Butylmethyl ether, organic solvent or mixture, Tert-Butylmethyl ether, read-out: Average Solubility
  solubility at 4 h: 1.12 mg/mL (≈ 2.76 mM)
[1]; Tert-Butylmethyl ether, organic solvent or mixture, Tert-Butylmethyl ether, single replicate, read-out: Solubility
  solubility at 4 h: 1.12 mg/mL (≈ 2.76 mM)
[1]; Toluene, organic solvent or mixture, Toluene, read-out: Average Solubility
  solubility at 4 h: 9.6 mg/mL (≈ 23.7 mM)
[1]; Toluene, organic solvent or mixture, Toluene, single replicate, read-out: Solubility
  solubility at 4 h: 9.5 mg/mL (≈ 23.4 mM)
[1]; Toluene, single replicate
  Solubility: 9.6 mg/mL (≈ 23.7 mM)
[1]; acetone, organic solvent or mixture, Acetone, read-out: Average Solubility
  solubility at 4 h: > 100 mg/mL
[1]; isopropyl acetate, organic solvent or mixture, Isopropyl acetate, read-out: Average Solubility
  solubility at 4 h: 22 mg/mL (≈ 54.3 mM)
